Where two headings read alike, the source gives them in different places.
Legend:
[1] = tested on: Human keratinocytes (HEK, Human Epidermal Keratinocytes); assay: Mitochondrial dehydrogenase activity (WST-1 formazan assay) in HEK cells; assay type: cell-based
[2] = tested on: HUVEC cells (Human Umbilical Vein Endothelial Cells); assay: Mitochondrial dehydrogenase activity (WST-1 formazan assay) in HUVEC cells; assay type: cell-based; settings: vascular endothelial cells
interleukin 1β (IL-1β) = assay: Inflammatory cytokines in cell supernatant (Mosaic ELISA microarray): IL-1β; assay type: cell-based, Human; settings: 24 hours
interleukin 6 (IL-6) = assay: Inflammatory cytokines in cell supernatant (Mosaic ELISA microarray): IL-6; assay type: cell-based, Human; settings: for IL-6 ng/(ml* No. of cells from photo) ± SD: 24 hours; for IL-6 production (effect in words): 1-10 µM
[3] = Anti-radical activity (decay of the DPPH radical); assay type: biochemical; settings: for Anti-radical (skin protective): 24 hours
Outline: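 Test substance in ethanol mixed 1:1 with 200 µM DPPH (stock concentrations), in quadruplicate. Absorbance read at 530 nm after 30 min, with vitamin C and ethanol-only controls. IC50 from variable-slope Hill regression of dose-activity curves.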

HDF cells [4] = assay: Summary of uses and toxic effects deduced from the cell assays (Table 1); assay type: cell-based, Human
Outline: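 HDF cells exposed to test substances at a given dosage for 24 h; uses and toxicity inferred from free-radical scavenging, mitochondrial dehydrogenase activity, IL-1β/IL-6 production (basal or induced by 100 µM H2O2), proliferation under standard growth conditions, and senescence-like morphology.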

[5] = tested on: collagen produced by HDF cells; assay: Quantity of collagen produced by the cells (elution of Sirius Red); settings: 1-10 µM (1 µM and 10 µM)
[6] = tested on: Human dermal fibroblasts (HDF); assay: Mitochondrial dehydrogenase activity (WST-1 formazan assay) in HDF cells; settings: for Revitalizing agent: 24 hours; for activity at 1 µM / activity at 10 µM: Homo sapiens, Fibroblast, read-out: % mitochondrial dehydrogenase activity ± SD
Description: Human dermal fibroblasts were used for assay at the 3rd T75 passage.
Mitochondrial dehydrogenase activity was measured in HDF, HEK and HUVEC cells by means of the formazan assay, using the WST-1 kit from Roche Diagnostic in accordance with the supplier's instructions. Briefly: the reagent was added (10 µl per well), the incubation was carried out for a further 2 hours or 4 hours, and, at the end of this time, the absorbance was read for 1 s at a wavelength of 450 nm in a Perkin Elmer Victor 2 Wallac microplate reader.
The activity percentage (% mitochondrial dehydrogenase activity) is defined as: % mitochondrial dehydrogenase activity = ((absorbance of treated cells - absorbance of blank) / (absorbance of control - absorbance of blank)) x 100.
The tests were performed with observations after 18 hours, seeding 8,000 cells per well, and after 42 hours, seeding 2,000 cells per well. Furthermore, in order to better analyze the dose/response curves for dihydroberberine, canadine and stylopine, curves were collected at 11 concentrations by seeding 2,000 cells per well with 46 hours incubation.
Dose/response curves are plotted at 6 concentrations. The tests were performed with observations after 24 hours, seeding 8,000 cells per well.

HDF cells [7] = assay: Evaluation of cell proliferation (counting of Sirius Red stained cells in photographs); settings: 24 hours
[8] = Dose 1 µm (coptisine: 1 pm [sic])
[9] = Dose 1 µm (coptisine: 1 pm [sic]), 24 hours

COc1ccc2cc3[n+](cc2c1OC)CCc1cc2c(cc1-3)OCO2 [berberine]
mitochondrial dehydrogenase activity (effect in words) ([1]; higher doses): inhibit mitochondrial dehydrogenase activity
mitochondrial dehydrogenase activity (effect in words) ([1]; low doses): stimulate mitochondrial dehydrogenase activity
mitochondrial dehydrogenase activity (effect in words) ([2]; higher doses): inhibit mitochondrial dehydrogenase activity
mitochondrial dehydrogenase activity (effect in words) ([2]; low doses): stimulate mitochondrial dehydrogenase activity
IL-1β ng/(ml* No. of cells from photo) ± SD (interleukin 1β (IL-1β); 1 µM, 34 ng/ml TGF-β1): 138±5 ng/(ml* No. of cells from photo)
IL-1β ng/(ml* No. of cells from photo) ± SD (interleukin 1β (IL-1β); 1 µM, 100 µM H2O2): 178±1 ng/(ml* No. of cells from photo)
IL-1β ng/(ml* No. of cells from photo) ± SD (interleukin 1β (IL-1β); 1 µM, Standard conditions): 120±6 ng/(ml* No. of cells from photo)
IL-1β ng/(ml* No. of cells from photo) ± SD (interleukin 1β (IL-1β); 10 µM, 34 ng/ml TGF-β1): 146±4 ng/(ml* No. of cells from photo)
IL-1β ng/(ml* No. of cells from photo) ± SD (interleukin 1β (IL-1β); 10 µM, 100 µM H2O2): 210±16 ng/(ml* No. of cells from photo)
IL-1β ng/(ml* No. of cells from photo) ± SD (interleukin 1β (IL-1β); 10 µM, Standard conditions): 94±5 ng/(ml* No. of cells from photo)
IL-6 ng/(ml* No. of cells from photo) ± SD (interleukin 6 (IL-6); 1 µM, 34 ng/ml TGF-β1): 657±5 ng/(ml* No. of cells from photo)
IL-6 ng/(ml* No. of cells from photo) ± SD (interleukin 6 (IL-6); 1 µM, 100 µM H2O2): 1519±155 ng/(ml* No. of cells from photo)
IL-6 ng/(ml* No. of cells from photo) ± SD (interleukin 6 (IL-6); 1 µM, Standard conditions): 843±35 ng/(ml* No. of cells from photo)
IL-6 ng/(ml* No. of cells from photo) ± SD (interleukin 6 (IL-6); 10 µM, 34 ng/ml TGF-β1): 603±21 ng/(ml* No. of cells from photo)
IL-6 ng/(ml* No. of cells from photo) ± SD (interleukin 6 (IL-6); 10 µM, 100 µM H2O2): 1201±84 ng/(ml* No. of cells from photo)
IL-6 ng/(ml* No. of cells from photo) ± SD (interleukin 6 (IL-6); 10 µM, Standard conditions): 618±25 ng/(ml* No. of cells from photo)
IL-6 production (effect in words) (interleukin 6 (IL-6); 34 ng/ml TGF-β1): tendency to reduce the production of IL-6 in a dose-dependent manner
IL-6 production (effect in words) (interleukin 6 (IL-6); 100 µM H2O2): tendency to reduce the production of IL-6 in a dose-dependent manner
IL-6 production (effect in words) (interleukin 6 (IL-6); standard conditions): tendency to reduce the production of IL-6 in a dose-dependent manner
% DPPH activity ([3]; 1 mM, 30 minutes): 100%
Anti-radical (skin protective) [3, 8]: No
Anti-radical (skin protective) ([3]; Dose 10 µm): No
Cytotoxic (HDF cells [4]): No
Irritant (HDF cells [4]): No
Anti-fibrotic (prevention of scar formation, also from acne) (HDF cells [4]; [9]): Yes (↓collagen, ↓IL-6)
Cytoprotective (antioxidant, anti-inflammatory and anti-ageing; useful also in the treatment of acne) (HDF cells [4]; [9]): Yes* (↓IL-6)
Wound-healing (HDF cells [4]; [9]): No
Anti-fibrotic (prevention of scar formation, also from acne) (HDF cells [4]; Dose 10 µm, 24 hours): Yes (↓collagen, ↓IL-6)
Cytoprotective (antioxidant, anti-inflammatory and anti-ageing; useful also in the treatment of acne) (HDF cells [4]; Dose 10 µm, 24 hours): Yes* (↓IL-6)
Cytotoxic (HDF cells [4]; Dose 10 µm, 24 hours): No
Irritant (HDF cells [4]; Dose 10 µm, 24 hours): No
Wound-healing (HDF cells [4]; Dose 10 µm, 24 hours): No
concentrations at which no toxic (cytotoxic and irritant) effects are shown (HDF cells [4]; exposure for 24 hours): less than or equal to 10 µM
collagen production (effect in words) ([5]; 34 ng/ml TGF-β1): antagonizes the stimulation of collagen induced by 34 ng/ml TGF-β1
collagen production (effect in words) ([5]; 100 µM H2O2): antagonizes the inhibition of collagen production induced by H2O2
mitochondrial dehydrogenase activity (effect in words) ([6]; 1 and 10 µM, 18 h and 42 h, more marked at 42 h): increased with respect to the control
Revitalizing agent [6, 8]: Yes
Revitalizing agent ([6]; Dose 10 µm): Yes
activity at 1 µM ([6]; 18 h): 114 ± 2.98%
activity at 10 µM ([6]; 18 h): 114 ± 10%
activity at 1 µM ([6]; 42 h): 140 ± 8.89%
activity at 10 µM ([6]; 42 h): 132 ± 10.2%
mitochondrial dehydrogenase activity (effect in words) ([6]; fibroblast cells, higher doses): inhibit mitochondrial dehydrogenase activity
mitochondrial dehydrogenase activity (effect in words) ([6]; fibroblast cells, low dosage): stimulate mitochondrial dehydrogenase activity
No. of cells from photo ± SD (HDF cells [7]; 1 µM, 34 ng/ml TGF-β1): 181±18
No. of cells from photo ± SD (HDF cells [7]; 1 µM, 100 µM H2O2): 129±24
No. of cells from photo ± SD (HDF cells [7]; 1 µM, Standard conditions): 203±11
No. of cells from photo ± SD (HDF cells [7]; 10 µM, 34 ng/ml TGF-β1): 184±28
No. of cells from photo ± SD (HDF cells [7]; 10 µM, 100 µM H2O2): 119±10
No. of cells from photo ± SD (HDF cells [7]; 10 µM, Standard conditions): 176±35

— patent EP2787958B1, “CHELIDONIUM MAJUS EXTRACTS AND THEIR USE IN THE TREATMENT OF SKIN DISORDERS AND PROMOTION OF SKIN REGENERATION” (priority 2011, dated 2013)
